Data reported in article PMC8732799 (Journal of Natural Medicines, 2021).
Values belong to the compound of their own block, whether it stands above or below them.

Key:
CYP2C8 [1] = experiment: Metabolic activity of paclitaxel in human cryopreserved hepatocytes: 6α-hydroxypaclitaxel production; conditions: 72 h treatment at 1–10 µM, then paclitaxel 10 µM 60 min
Protocol: (§1) Plateable and interaction-qualified cryopreserved human hepatocytes (Lonza, Walkersville, MD, USA) were thawed in a hepatocyte thawing medium (Lonza) and then seeded at 5 × 10^4 cells per well in collagen-coated 96-well plates (Corning, Corning, NY, USA) with hepatocyte plating medium (Lonza). After 1 h of incubation with 5% CO2 under saturated humidity at 37 °C, the medium was replaced with fresh plating medium. After 4 h of seeding, the media were replaced with maintenance medium (Lonza) containing Matrigel (0.3 mg/ml).
(§2) After removing the medium containing Matrigel from the cells, the cells were treated with each test compound prepared in a maintenance medium (1, 3, and 10 µM). Rifampicin, a well-known CYP2C8 and CYP3A4 inducer, was used as a positive control and treated under the same conditions. […] To obtain the samples to evaluate mRNA levels, the cells were collected 24 h after drug treatment (n = 3 per test compound). […] The concentration of DMSO in the maintenance medium was 0.1%. A cell viability assay using CellTiter-Glo (Promega, Madison, WI, USA) was used to ensure the absence of cell toxicity during treatment with each compound.

CYP2C8 [2] = experiment: CYP2C8 mRNA expression in human cryopreserved hepatocytes (quantitative PCR); conditions: 24 h, 1, 3 and 10 µM
Protocol: as §1, §2
RNA isolation and cDNA synthesis were carried out using the Superprep II Cell Lysis & RT Kit (Toyobo, Osaka, Japan) according to the manufacturer’s protocol. […] Data are expressed as fold-changes to the vehicle control.

CYP2C8 [3] = target: T1, CYP2C8 (Homo sapiens, UniProt P10632); experiment: Inhibition of paclitaxel metabolism in human liver microsome fraction: 6α-hydroxypaclitaxel production; conditions: human liver microsomes
T1 sequence (P10632 1-490): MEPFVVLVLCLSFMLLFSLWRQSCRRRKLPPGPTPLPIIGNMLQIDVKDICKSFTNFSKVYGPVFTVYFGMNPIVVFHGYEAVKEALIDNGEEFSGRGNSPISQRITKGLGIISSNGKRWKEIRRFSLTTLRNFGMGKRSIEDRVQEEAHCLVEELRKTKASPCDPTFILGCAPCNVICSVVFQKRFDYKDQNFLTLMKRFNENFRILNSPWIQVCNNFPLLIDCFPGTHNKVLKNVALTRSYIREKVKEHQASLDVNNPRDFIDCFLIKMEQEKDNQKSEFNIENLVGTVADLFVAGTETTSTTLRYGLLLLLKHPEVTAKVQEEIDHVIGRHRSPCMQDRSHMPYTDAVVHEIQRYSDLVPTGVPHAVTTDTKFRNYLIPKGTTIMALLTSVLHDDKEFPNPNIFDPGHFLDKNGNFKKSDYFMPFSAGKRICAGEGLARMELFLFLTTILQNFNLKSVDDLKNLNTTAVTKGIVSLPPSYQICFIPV
Protocol: (§3) Then, 10 µl of 10 mM β-NADPH (Oriental Yeast Co., Ltd., Tokyo, Japan) was added, mixed, and incubated at 37 °C for 140 min. The reaction was stopped by adding 100 µl of ethanol containing 40 µM BHB as an internal standard into the reactant and mixing vigorously. After centrifugation (15,000 × g, 7 min), 10 µl of the supernatant was analyzed using HPLC–MS/MS (Quattro Premier XE, Waters, Milford, MA, USA). The mass spectrometer used an electrospray ionization source in the positive ion mode with multiple reaction monitoring. The analytical column was an Inertsil ODS-4 (2.1 mm i.d. × 100 mm, 3 µm) (GL Sciences Inc., Tokyo, Japan). The mobile phase was delivered using a linear gradient elution system consisting of 0.5% formic acid (A): acetonitrile containing 0.5% formic acid (B), at a flow rate of 0.2 ml/min, with the following gradient profile: 40% B (0 min), increasing from 40 to 70% (0–6 min), and 70% B (6–8 min).

CYP3A4 = CYP3A4 (Homo sapiens, UniProt P08684); experiment: Inhibition of paclitaxel metabolism in human liver microsome fraction: 3'-p-hydroxypaclitaxel production; conditions: human liver microsomes
Chain of CYP3A4 (P08684 whole entry): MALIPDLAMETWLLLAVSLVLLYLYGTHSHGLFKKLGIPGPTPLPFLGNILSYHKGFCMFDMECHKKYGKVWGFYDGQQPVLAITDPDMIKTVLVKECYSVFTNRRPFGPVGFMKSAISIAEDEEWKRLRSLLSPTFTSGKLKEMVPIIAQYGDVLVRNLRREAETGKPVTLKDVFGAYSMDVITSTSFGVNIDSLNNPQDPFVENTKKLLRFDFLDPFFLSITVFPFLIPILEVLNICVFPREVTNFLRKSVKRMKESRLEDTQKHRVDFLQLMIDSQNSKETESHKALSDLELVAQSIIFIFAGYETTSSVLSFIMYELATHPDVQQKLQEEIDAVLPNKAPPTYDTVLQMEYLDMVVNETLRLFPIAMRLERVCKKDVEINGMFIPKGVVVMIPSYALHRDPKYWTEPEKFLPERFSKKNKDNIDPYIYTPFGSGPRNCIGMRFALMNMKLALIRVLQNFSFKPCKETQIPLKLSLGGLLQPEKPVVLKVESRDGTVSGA
Protocol: as §3

[4] = design: method as in PMID 30974202; conditions: rats, oral extract of processed Aconite root 1 g/kg as original crude drug; cited from earlier work
[5] = any concentration from 0.050 to 50 µM
[6] = human, pH 7.4, probe paclitaxel (6α-hydroxypaclitaxel formation)

Compound: CO[C@H]1/C=C/O[C@@]2(C)Oc3c(C)c(O)c4c(O)c(c(/C=N/N5CCN(C)CC5)c(O)c4c3C2=O)NC(=O)/C(C)=C\C=C\[C@H](C)[C@H](O)[C@@H](C)[C@@H](O)[C@@H](C)[C@H](OC(C)=O)[C@@H]1C [Rifampicin, rifampicin]
effect on production of 6α-hydroxypaclitaxel by human hepatocytes (CYP2C8 [1]): significantly induced | effect on CYP2C8 mRNA expression (CYP2C8 [2]): significantly induced

Compound: OC[C@H]1O[C@@H](O[C@@H]2OC=C[C@H]3[C@H](O)[C@@H]4O[C@]4(CO)[C@@H]23)[C@H](O)[C@@H](O)[C@@H]1O [catalpol]
effect on production of 6α-hydroxypaclitaxel (CYP2C8 [3]; at 50 µM): significantly induced

Compound: neoline
induction ratio of 6α-hydroxypaclitaxel production (CYP2C8 [3]; at 5 µM): less than 10% | effect on production of 6α-hydroxypaclitaxel (CYP2C8 [3]; at 5.0 µM): significantly induced | induction ratio of 3'-p-hydroxypaclitaxel production (CYP3A4; at 5 µM): less than 10% | effect on production of 3'-p-hydroxypaclitaxel (CYP3A4; at 5.0 µM): significantly induced | effect on production of 3'-p-hydroxypaclitaxel (CYP3A4; at 50 µM): significantly inhibited | maximum blood concentration of neoline [4]: approximately 80 nM

Now from value to compound:

effect on production of 6α-hydroxypaclitaxel (CYP2C8 [3]; at 50 µM): significantly induced | effect on production of 3'-p-hydroxypaclitaxel (CYP3A4; at 50 µM): induced
Compound: O=C(O)C1=CO[C@@H](O[C@@H]2O[C@H](CO)[C@@H](O)[C@H](O)[C@H]2O)[C@@H]2C(CO)=CC[C@H]12 [geniposidic acid]

effect on production of 6α-hydroxypaclitaxel (CYP2C8 [3]; at 50 µM): significantly induced
Compound: COC(=O)C1=CO[C@@H](O[C@@H]2O[C@H](CO)[C@@H](O)[C@H](O)[C@H]2O)[C@@H]2[C@@H](C)[C@@H](O)C[C@H]12 [loganin]

effect on paclitaxel metabolism (6α-hydroxypaclitaxel production) (CYP2C8 [3]; [5]): did not affect | effect on paclitaxel metabolism (3'-p-hydroxypaclitaxel production) (CYP3A4; [5]): did not affect
Compound: C[C@@]12C[C@@]3(O)O[C@@H](O1)[C@]1(COC(=O)c4ccccc4)[C@H]3C[C@@]12O[C@@H]1O[C@H](CO)[C@@H](O)[C@H](O)[C@H]1O [paeoniflorin]

activity at 140 min, 0.3 µM (CYP2C8 [3]; [6]): 49% | activity at 140 min, 3 µM (CYP2C8 [3]; [6]): 29%
Compound: O=c1c(O)c(-c2ccc(O)c(O)c2)oc2cc(O)cc(O)c12 [quercetin]
